The target of the first assay is T1, TRPML1 (Homo sapiens, UniProt Q9GZU1).
T1 construct: expressed in transfected cells; host or cells: HEK T-REx cells stably expressing GCaMP6f and TRPML1
T1 sequence (Q9GZU1 whole entry): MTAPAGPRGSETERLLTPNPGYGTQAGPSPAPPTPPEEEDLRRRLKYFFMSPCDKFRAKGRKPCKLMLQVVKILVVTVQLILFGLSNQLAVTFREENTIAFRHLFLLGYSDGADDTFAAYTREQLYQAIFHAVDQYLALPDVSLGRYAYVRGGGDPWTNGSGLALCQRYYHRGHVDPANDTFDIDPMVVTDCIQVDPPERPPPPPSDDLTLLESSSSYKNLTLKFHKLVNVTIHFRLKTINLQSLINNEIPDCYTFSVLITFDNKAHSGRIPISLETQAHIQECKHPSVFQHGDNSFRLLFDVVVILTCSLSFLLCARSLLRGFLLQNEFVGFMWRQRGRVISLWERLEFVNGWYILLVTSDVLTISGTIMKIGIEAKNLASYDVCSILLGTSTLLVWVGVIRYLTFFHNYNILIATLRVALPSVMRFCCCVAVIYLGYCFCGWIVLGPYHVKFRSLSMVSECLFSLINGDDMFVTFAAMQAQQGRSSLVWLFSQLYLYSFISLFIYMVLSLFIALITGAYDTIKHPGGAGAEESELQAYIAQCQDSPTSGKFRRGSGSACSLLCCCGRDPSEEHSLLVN
Put plainly: Cellular TRPML1 assay (FLIPR, GCaMP6f calcium read-out). Type of assay: cell-based. The conditions noted are these: HEKT-REx/GCaMP6f/TRPML1 cells, FLIPR TETRA, kinetic response over 300 seconds. The protocol: Example A: Cellular TRPML1 Assay
The final clone for the TRPML1 assay is HEKT-REx/GCaMP6f/TRPML1. GCaMP6f is a genetically encoded calcium indicator that is stably expressed in this cell line and used as a fluorescent read-out.
Experiments were performed in 384 MTP format. Cells are seeded at 15000 cells/well in 20 μl/well of Optimem+0.5% FBS without selection antibiotics. Twenty-four hours later, cells are assayed for the response to various compounds using the Ca^2+ sensitive GCaMP6f protein stably expressed in the cells as readout.
The experiment was performed in a 384-well format according to the following procedures: • 24 h after seeding, the cells were pre-incubated at room temperature for about 10 min. • Started the experiment at the FLIPR^TETRA by injecting 10 μL/w of 3× concentrated test compounds and controls in Ca^2+ free Tyrode's buffer. Monitored the kinetic response over a period of 300 seconds. • Final DMSO concentration: 0.5%
Data from FLIPR^TETRA measurements were analyzed with the Genedata Screener© software.
Regarding `Cc1oc(N2CCC(F)(F)C2)nc1C(=O)Nc1ccc(N2CCCCC2)c(F)c1` [Example 121, 2-(3,3-difluoropyrrolidin-1-yl)-N-(3-fluoro-4-(piperidin-1-yl)phenyl)-5-methyloxazole-4-carboxamide], the “TRPML1 FLIPR pEC50” value is given as “C (C = 5.0-4.0)”.

Still in this assay, the particulars now being: HEKT-REx/GCaMP6f/TRPML1 cells, FLIPR TETRA, kinetic response over 300 seconds; read-out: TRPML1 FLIPR pEC50 (converted).
For the compound `Cc1oc(N2CCCC2CO)nc1C(=O)Nc1ccc(N2CCCCC2)c(F)c1` (stereo not shown) [Example 93, N-(3-fluoro-4-(piperidin-1-yl)phenyl)-2-(2-(hydroxymethyl)pyrrolidin-1-yl)-5-methyloxazole-4-carboxamide], the EC50 is 10 to 100 µM.

Consider `Cc1oc(N2CCN(C3CC3)CC2)nc1C(=O)Nc1ccc(N2CCCCC2)c(F)c1` [Example 94, 2-(4-cyclopropylpiperazin-1-yl)-N-(3-fluoro-4-(piperidin-1-yl)phenyl)-5-methyloxazole-4-carboxamide], for which the EC50 was 10 to 100 µM.

As to `Cc1oc(NC2CCCC23CCCO3)nc1C(=O)Nc1ccc(N2CCCCC2)c(F)c1` (stereo not shown) [Example 95, 2-((1-oxaspiro[4.4]nonan-6-yl)amino)-N-(3-fluoro-4-(piperidin-1-yl)phenyl)-5-methyloxazole-4-carboxamide], the EC50 is 10 to 100 µM.

Take `Cc1oc(N2CCC(O)C2)nc1C(=O)Nc1ccc(N2CCCCC2)c(F)c1` (stereo not shown) [Example 97, N-(3-fluoro-4-(piperidin-1-yl)phenyl)-2-(3-hydroxypyrrolidin-1-yl)-5-methyloxazole-4-carboxamide]: the EC50 was 10 to 100 µM.

Turning to `Cc1oc(N2C3CCC2COC3)nc1C(=O)Nc1ccc(N2CCCCC2)c(F)c1` [Example 98, 2-(3-oxa-8-azabicyclo[3.2.1]octan-8-yl)-N-(3-fluoro-4-(piperidin-1-yl)phenyl)-5-methyloxazole-4-carboxamide], the EC50 was 10 to 100 µM.

Turning to `COCc1oc(N2CCCC2)nc1C(=O)Nc1ccc(OC2CCCC2)c(F)c1` [Example 101, N-[4-(cyclopentyloxy)-3-fluorophenyl]-5-(methoxymethyl)-2-(pyrrolidin-1-yl)oxazole-4-carboxamide], the EC50 is 10 to 100 µM.

Take `COCc1oc(N2CCCC2)nc1C(=O)Nc1cc(F)c(N2CCCCC2)c(F)c1` [Example 102, N-[3,5-difluoro-4-(piperidin-1-yl)phenyl]-5-(methoxymethyl)-2-(pyrrolidin-1-yl) oxazole-4-carboxamide]: the EC50 is 1 to 10 µM.

As for `COCc1oc(N2CCCC2C)nc1C(=O)Nc1ccc(N2CCCCC2)c(F)c1` (stereo not shown) [Example 103, N-(3-fluoro-4-(piperidin-1-yl)phenyl)-5-(methoxymethyl)-2-(2-methylpyrrolidin-1-yl)oxazole-4-carboxamide], the EC50 is 10 to 100 µM.

On to `COCc1oc(N2CC3(C2)CC(F)(F)C3)nc1C(=O)Nc1ccc(N2CCCCC2)c(F)c1` [Example 104, 2-{6,6-difluoro-2-azaspiro[3.3]heptan-2-yl}-N-[3-fluoro-4-(piperidin-1-yl)phenyl]-5-(methoxymethyl)oxazole-4-carboxamide], for which the EC50 is 1 to 10 µM.

For `COCc1oc(N2CCCC2)nc1C(=O)Nc1ccc(OC2CCCC2(F)F)c(F)c1` (stereo not shown) [Example 105, N-(4-((2,2-difluorocyclopentyl)oxy)-3-fluorophenyl)-5-(methoxymethyl)-2-(pyrrolidin-1-yl)oxazole-4-carboxamide], the EC50 was 1 to 10 µM.

Consider `Cc1oc(N2CCC(CN3CCC3)C2)nc1C(=O)Nc1ccc(N2CCCCC2)c(F)c1` (stereo not shown) [Example 106, 2-(3-(azetidin-1-ylmethyl)pyrrolidin-1-yl)-N-(3-fluoro-4-(piperidin-1-yl)phenyl)-5-methyloxazole-4-carboxamide], for which the EC50 is 10 to 100 µM.

`Cc1oc(N2CCC(CN3CCC(F)(F)CC3)C2)nc1C(=O)Nc1ccc(N2CCCCC2)c(F)c1` (stereo not shown) [Example 107, 2-(3-((4,4-difluoropiperidin-1-yl)methyl)pyrrolidin-1-yl)-N-(3-fluoro-4-(piperidin-1-yl)phenyl)-5-methyloxazole-4-carboxamide]: the EC50 was 10 to 100 µM.

For the compound `CC(C)OCc1oc(N2CCCC2)nc1C(=O)Nc1ccc(OC2CCCC2(F)F)c(F)c1` (stereo not shown) [Example 109], the EC50 was 1 to 10 µM.

`CCCc1oc(N2CCCC2)nc1C(=O)Nc1ccc(OC2CCCC2(F)F)c(F)c1` (stereo not shown) [Example 110, N-(4-((2,2-difluorocyclopentyl)oxy)-3-fluorophenyl)-5-propyl-2-(pyrrolidin-1-yl)oxazole-4-carboxamide]: the EC50 is 1 to 10 µM.

As for `Cc1oc(-n2cccc2)nc1C(=O)Nc1ccc(N2CCCCC2)c(F)c1` [Example 113, N-(3-fluoro-4-(piperidin-1-yl)phenyl)-5-methyl-2-(1H-pyrrol-1-yl)oxazole-4-carboxamide], the EC50 is 1 to 10 µM.

With `Cc1oc(N2CCCCC2)nc1C(=O)Nc1ccc(N2CCCCC2)c(F)c1` [Example 114, N-(3-fluoro-4-(piperidin-1-yl)phenyl)-5-methyl-2-(piperidin-1-yl)oxazole-4-carboxamide], the EC50 is 10 to 100 µM.

In the case of `Cc1oc(N(C)C(C)C)nc1C(=O)Nc1ccc(N2CCCCC2)c(F)c1` [Example 115, N-(3-fluoro-4-(piperidin-1-yl)phenyl)-2-(isopropyl(methyl)amino)-5-methyloxazole-4-carboxamide], the EC50 was 10 to 100 µM.

In the case of `Cc1oc(N(C)C)nc1C(=O)Nc1ccc(N2CCCCC2)c(F)c1` [Example 117, 2-(dimethylamino)-N-(3-fluoro-4-(piperidin-1-yl)phenyl)-5-methyloxazole-4-carboxamide], the EC50 is 10 to 100 µM.

Turning to `Cc1oc(N2CCCC2C)nc1C(=O)Nc1ccc(N2CCCCC2)c(F)c1` (stereo not shown) [Example 119, N-(3-fluoro-4-(piperidin-1-yl)phenyl)-5-methyl-2-(2-methylpyrrolidin-1-yl)oxazole-4-carboxamide], the EC50 is 1 to 10 µM.

Turning to `Cc1oc(N2CCC(C)C2)nc1C(=O)Nc1ccc(N2CCCCC2)c(F)c1` (stereo not shown) [Example 122, N-(3-fluoro-4-(piperidin-1-yl)phenyl)-5-methyl-2-(3-methylpyrrolidin-1-yl)oxazole-4-carboxamide], the EC50 was 10 to 100 µM.

`Cc1oc(N2C[C@H]3CCO[C@H]3C2)nc1C(=O)Nc1ccc(N2CCCCC2)c(F)c1` [Example 123, N-(3-fluoro-4-(piperidin-1-yl)phenyl)-2-((3aR,6aR)-hexahydro-5H-furo[2,3-c]pyrrol-5-yl)-5-methyloxazole-4-carboxamide]: the EC50 is 1 to 10 µM.

For the compound `CCC1(CC)CN(c2nc(C(=O)Nc3cc(F)c(OC4CCCC5(CC5)C4)c(F)c3)c(CC(F)(F)F)o2)C1` (stereo not shown) [Example 132, 2-(3,3-diethylazetidin-1-yl)-N-(3,5-difluoro-4-(spiro[2.5]octan-5-yloxy)phenyl)-5-(2,2,2-trifluoroethyl)oxazole-4-carboxamide], the EC50 is 1 to 10 µM.

Regarding `COC1(C)CN(c2nc(C(=O)Nc3ccc(OC4CC5CCC(C4)O5)c(F)c3)c(CC(F)(F)F)o2)C1` (stereo not shown) [Example 133, N-(4-((8-oxabicyclo[3.2.1]octan-3-yl)oxy)-3-fluorophenyl)-2-(3-methoxy-3-methylazetidin-1-yl)-5-(2,2,2-trifluoroethyl)oxazole-4-carboxamide], the EC50 is 1 to 10 µM.

For the compound `CCC1(CC)CN(c2nc(C(=O)Nc3cc(F)c(OC4CCCC5(CCC5)C4)c(F)c3)c(CC(F)(F)F)o2)C1` (stereo not shown) [Example 134, 2-(3,3-diethylazetidin-1-yl)-N-(3,5-difluoro-4-(spiro[3.5]nonan-6-yloxy)phenyl)-5-(2,2,2-trifluoroethyl)oxazole-4-carboxamide], the EC50 is 1 to 10 µM.

The values above are taken from US12098145B2 (Libra Therapeutics, Inc., priority 2022, dated 2024).
